Measurements as given in patent US20240350493A1 (Kadmon Corporation, LLC, priority 2022, published 2024).
Read-outs that look alike come from different tables or passages of the source.

Columns and labels:
[1] = phase I two-part drug-drug interaction study, plasma pharmacokinetics (Example 1); format: in vivo, human; details: male, human, plasma, oral
Excerpt: The secondary objective was to provide additional information on the safety and tolerability of this dose regimen in healthy males.
This was a single center, non-randomized, DDI study in 35 (Part 1) and 38 (Part 2) healthy males. The key inclusion criterion was males aged 18 to 55 years (inclusive). […] In Part 2, co-administration with omeprazole was studied. The study design is illustrated in FIG. 1.
At least a 2-to 8-day washout occurred between each period to account for a minimum of 5 half-lives of the active moieties dosed in the preceding period.
Blood samples were collected into 6 mL K,EDTA tubes and were processed within 30 minutes of collection. The resultant plasma was then frozen within 90 minutes of collection and stored at […] until shipment to the bioanalytical laboratory.
For each comparison, PK parameters were natural log transformed and analyzed using mixed effect modeling with treatment included as a fixed effect and subject as a random effect. Adjusted geometric mean ratios (GMRs) and corresponding 90% CIs were calculated.

[2] = system: bacterial mutagenicity (Ames); experiment: in vitro bacterial mutagenicity (Ames) assay; format: cell-based
pregnant rats = experiment: embryo-fetal development studies in rats; format: in vivo, rat
Experimental: In the pilot study, maternal toxicity and embryo-fetal developmental effects were observed. Maternal toxicity (reduced body weight gain) occurred at 150 and 300 mg/kg/day doses. Increased post-implantation loss occurred at 50 and 300 mg/kg/day.

CC(C)NC(=O)COc1cccc(-c2nc(Nc3ccc4[nH]ncc4c3)c3ccccc3n2)c1 [Belumosudil, 2-{3-[4-(1H-indazol-5-ylamino)-2-quinazolinyl]phenoxy}-N-(propan-2-yl) acetamide]
AUC(0-inf) ([1]; 200 mg belumosudil single dose + itraconazole, read-out: AUCinf, geometric mean (geometric CV %)): 11200 ng·h/mL
AUC(0-t) ([1]; 200 mg belumosudil single dose + itraconazole, read-out: AUClast, arithmetic mean (SD)): 11600 ng·h/mL
AUC(0-t) ([1]; 200 mg belumosudil single dose + itraconazole, read-out: AUClast, geometric mean (geometric CV %)): 10900 ng·h/mL
Cmax ([1]; 200 mg belumosudil single dose + itraconazole, read-out: Cmax, arithmetic mean (SD)): 2230 ng/mL
Cmax ([1]; 200 mg belumosudil single dose + itraconazole, read-out: Cmax, geometric mean (geometric CV %)): 2130 ng/mL
Tmax ([1]; 200 mg belumosudil single dose + itraconazole, read-out: Tmax, median (range)): 3 h
half-life ([1]; 200 mg belumosudil single dose + itraconazole, read-out: t1/2, arithmetic mean (SD) (converted)): 8.79 h
half-life ([1]; 200 mg belumosudil single dose + itraconazole, read-out: t1/2, geometric mean (geometric CV %) (converted)): 8.27 h
AUC from 0 to 24 h ([1]; 200 mg belumosudil single dose + rabeprazole, read-out: AUC0-24, arithmetic mean (SD)): 1730 ng·h/mL
AUC from 0 to 24 h ([1]; 200 mg belumosudil single dose + rabeprazole, read-out: AUC0-24, geometric mean (geometric CV %)): 1510 ng·h/mL
AUC(0-inf) ([1]; 200 mg belumosudil single dose + rabeprazole, read-out: AUCinf, arithmetic mean (SD)): 1940 ng·h/mL
AUC(0-inf) ([1]; 200 mg belumosudil single dose + rabeprazole, read-out: AUCinf, geometric mean (geometric CV %)): 1680 ng·h/mL
AUC(0-t) ([1]; 200 mg belumosudil single dose + rabeprazole, read-out: AUClast, arithmetic mean (SD)): 1850 ng·h/mL
AUC(0-t) ([1]; 200 mg belumosudil single dose + rabeprazole, read-out: AUClast, geometric mean (geometric CV %)): 1580 ng·h/mL
Cmax ([1]; 200 mg belumosudil single dose + rabeprazole, read-out: Cmax, arithmetic mean (SD)): 262 ng/mL
Cmax ([1]; 200 mg belumosudil single dose + rabeprazole, read-out: Cmax, geometric mean (geometric CV %)): 227 ng/mL
Tmax ([1]; 200 mg belumosudil single dose + rabeprazole, read-out: Tmax, median (range)): 5 h
half-life ([1]; 200 mg belumosudil single dose + rabeprazole, read-out: t1/2, arithmetic mean (SD) (converted)): 10.4 h
half-life ([1]; 200 mg belumosudil single dose + rabeprazole, read-out: t1/2, geometric mean (geometric CV %) (converted)): 7.8 h
AUC from 0 to 24 h ([1]; 200 mg belumosudil single dose + rifampicin, read-out: AUC0-24, arithmetic mean (SD)): 2630 ng·h/mL
AUC from 0 to 24 h ([1]; 200 mg belumosudil single dose + rifampicin, read-out: AUC0-24, geometric mean (geometric CV %)): 2490 ng·h/mL
AUC(0-inf) ([1]; 200 mg belumosudil single dose + rifampicin, read-out: AUCinf, arithmetic mean (SD)): 2640 ng·h/mL
AUC(0-inf) ([1]; 200 mg belumosudil single dose + rifampicin, read-out: AUCinf, geometric mean (geometric CV %)): 2500 ng·h/mL
AUC(0-t) ([1]; 200 mg belumosudil single dose + rifampicin, read-out: AUClast, arithmetic mean (SD)): 2580 ng·h/mL
AUC(0-t) ([1]; 200 mg belumosudil single dose + rifampicin, read-out: AUClast, geometric mean (geometric CV %)): 2440 ng·h/mL
Cmax ([1]; 200 mg belumosudil single dose + rifampicin, read-out: Cmax, arithmetic mean (SD)): 753 ng/mL
Cmax ([1]; 200 mg belumosudil single dose + rifampicin, read-out: Cmax, geometric mean (geometric CV %)): 712 ng/mL
Tmax ([1]; 200 mg belumosudil single dose + rifampicin, read-out: Tmax, median (range)): 3 h
half-life ([1]; 200 mg belumosudil single dose + rifampicin, read-out: t1/2, arithmetic mean (SD) (converted)): 2.36 h
half-life ([1]; 200 mg belumosudil single dose + rifampicin, read-out: t1/2, geometric mean (geometric CV %) (converted)): 2.17 h
Cmax ([1]; 200 mg, 200 mg belumosudil BID alone, first dose, read-out: Cmax, arithmetic mean (SD)): 1880 ng/mL
Cmax ([1]; 200 mg, 200 mg belumosudil BID alone, first dose, read-out: Cmax, geometric mean (geometric CV %)): 1790 ng/mL
Tmax ([1]; 200 mg, 200 mg belumosudil BID alone, first dose, read-out: Tmax, median (range)): 3 h
Cmax ([1]; 200 mg, 200 mg belumosudil BID alone, second dose, read-out: Cmax, arithmetic mean (SD)): 1870 ng/mL
Cmax ([1]; 200 mg, 200 mg belumosudil BID alone, second dose, read-out: Cmax, geometric mean (geometric CV %)): 1760 ng/mL
Tmax ([1]; 200 mg, 200 mg belumosudil BID alone, second dose, read-out: Tmax, median (range)): 15 h
AUC from 0 to 24 h ([1]; 200 mg, 200 mg belumosudil BID alone, read-out: AUC0-24, arithmetic mean (SD)): 17900 ng·h/mL
AUC from 0 to 24 h ([1]; 200 mg, 200 mg belumosudil BID alone, read-out: AUC0-24, geometric mean (geometric CV %)): 16800 ng·h/mL
AUC(0-inf) ([1]; 200 mg, 200 mg belumosudil BID alone, read-out: AUCinf, arithmetic mean (SD)): 20100 ng·h/mL
AUC(0-inf) ([1]; 200 mg, 200 mg belumosudil BID alone, read-out: AUCinf, geometric mean (geometric CV %)): 18800 ng·h/mL
AUC(0-t) ([1]; 200 mg, 200 mg belumosudil BID alone, read-out: AUClast, arithmetic mean (SD)): 20300 ng·h/mL
AUC(0-t) ([1]; 200 mg, 200 mg belumosudil BID alone, read-out: AUClast, geometric mean (geometric CV %)): 18900 ng·h/mL
half-life ([1]; 200 mg, 200 mg belumosudil BID alone, read-out: t1/2, arithmetic mean (SD) (converted)): 7.15 h
half-life ([1]; 200 mg, 200 mg belumosudil BID alone, read-out: t1/2, geometric mean (geometric CV %) (converted)): 6.86 h
AUC from 0 to 24 h ([1]; 200 mg, 200 mg belumosudil single dose alone, read-out: AUC0-24, arithmetic mean (SD)): 8830 ng·h/mL
AUC from 0 to 24 h ([1]; 200 mg, 200 mg belumosudil single dose alone, read-out: AUC0-24, geometric mean (geometric CV %)): 8430 ng·h/mL
AUC(0-inf) ([1]; 200 mg, 200 mg belumosudil single dose alone, read-out: AUCinf, arithmetic mean (SD)): 9580 ng·h/mL
AUC(0-inf) ([1]; 200 mg, 200 mg belumosudil single dose alone, read-out: AUCinf, geometric mean (geometric CV %)): 9080 ng·h/mL
AUC(0-t) ([1]; 200 mg, 200 mg belumosudil single dose alone, read-out: AUClast, arithmetic mean (SD)): 9220 ng·h/mL
AUC(0-t) ([1]; 200 mg, 200 mg belumosudil single dose alone, read-out: AUClast, geometric mean (geometric CV %)): 8750 ng·h/mL
Cmax ([1]; 200 mg, 200 mg belumosudil single dose alone, read-out: Cmax, arithmetic mean (SD)): 1850 ng/mL
Cmax ([1]; 200 mg, 200 mg belumosudil single dose alone, read-out: Cmax, geometric mean (geometric CV %)): 1770 ng/mL
Tmax ([1]; 200 mg, 200 mg belumosudil single dose alone, read-out: Tmax, median (range)): 3 h
half-life ([1]; 200 mg, 200 mg belumosudil single dose alone, read-out: t1/2, arithmetic mean (SD) (converted)): 9.28 h
half-life ([1]; 200 mg, 200 mg belumosudil single dose alone, read-out: t1/2, geometric mean (geometric CV %) (converted)): 7.89 h
Tmax ([1]; coadministration of rabeprazole, read-out: delay of median Tmax): 2 h
genotoxicity [2]: not genotoxic
doses with fetal malformations (pregnant rats; pilot study, oral, period of organogenesis): ≥ 50 mg/kg/day
maternal exposures (AUC) with adverse developmental outcomes, times human exposure at recommended dose (pregnant rats; rat): ≥ 3 times
